Source: patent US9630965B2, “Fused amino pyridine as HSP90 inhibitors” (Curis, Inc., priority 2007, dated 2017)

Key:
HSP90 [1] = target: T1, HSP90 (Homo sapiens (Human), UniProt P07900); assay: Hsp90 chaperone assay (refolding of heat-denatured luciferase); format: biochemical
Protocol: (a) An In Vitro Assay which Determines the Ability of a Test Compound to Inhibit Hsp90 Chaperone Activity.
The Hsp90 chaperone assay was performed to measure the ability of HSP90 protein to refold the heat-denatured luciferase protein. HSP90 was first incubated with different concentrations of test compounds in denaturation buffer (25 mM Tris, pH7.5, 8 mM MgSO4, 0.01% bovine gamma globulin and 10% glycerol) at room temperature for 30 min. Luciferase protein was added to denaturation mix and incubated at 50° C. for 8 min. The final concentration of HSP90 and luciferase in denaturation mixture were 0.375 μM and 0.125 μM respectively. A 5 μl sample of the denatured mix was diluted into 25 μl of renaturation buffer (25 mM Tris, pH7.5, 8 mM MgSO4, 0.01% bovine gamma globulin and 10% glycerol, 0.5 mM ATP, 2 mM DTT, 5 mM KCl, 0.3 μM HSP70 and 0.15 μM HSP40). The renaturation reaction was incubated at room temperature for 150 min, followed by dilution of 10 μl of the renatured sample into 90 μl of luciferin reagent (Luclite, PerkinElmer Life Science). The mixture was incubated at dark for 5 min before reading the luminescence signal on a TopCount plate reader (PerkinElmer Life Science).

HSP90 [2] = target: T1, HSP90; assay: HSP90 competition binding (fluorescence polarization) assay with FITC labeled GM; conditions: 24 hours of incubation at 4° C.
Text: (b) HSP90 Competition Binding (Fluorescence Polarization) Assay.
A fluorescein isothiocyanate (FITC) labeled GM was purchase from InvivoGen (ant-fgl-1). The interaction between HSP90 and labeled GM forms the basis for the fluorescence polarization assay. A free and fast-tumbling FITC labeled GM emits random light with respect to the plane of polarization plane of excited light, resulting in a lower polarization degree (mP) value. When GM is bound to HSP90, the complex tumble slower and the emitted light is polarized, resulting in a higher mP value. […] The assay buffer contained 20 mM HEPES (pH 7.3), 50 mM KCl, 1 mM DTT, 50 mM MgCl2, 20 mM Na2MoO4, 0.01% NP40 with 0.1 mg/ml bovine gamma-globulin.

| SMILES | IC50 (HSP90 [1]) [nM] | IC50 (HSP90 [2]) [nM] |
| --- | --- | --- |
| C#CCCCn1c(Sc2cc3c(cc2Cl)OCO3)nc2c(N)nccc21 [Compound 2, 2-(6-chlorobenzo[d][1,3]dioxol-5-ylthio)-1-(pent-4-ynyl)-1H-imidazo[4,5-c]pyridin-4-amine] | 100 to 1000 | 100 to 1000 |
| C#CCCCn1c(Sc2cc3c(cc2I)OCO3)nc2c(N)nccc21 [Compound 3, 2-(6-iodobenzo[d][1,3]dioxol-5-ylthio)-1-(pent-4-ynyl)-1H-imidazo[4,5-c]pyridin-4-amine] | 100 to 1000 | < 100 |
| C#CCCCn1c(Sc2cccc(OC)c2)nc2c(N)nccc21 [Compound 11, 2-(3-methoxyphenylthio)-1-(pent-4-ynyl)-1H-imidazo[4,5-c]pyridin-4-amine] | ≥ 10000 | > 10000 |
| C#CCCCn1c(Sc2cc(OC)ccc2I)nc2c(N)nccc21 [Compound 12, 2-(2-iodo-5-methoxyphenylthio)-1-(pent-4-ynyl)-1H-imidazo[4,5-c]pyridin-4-amine] | 1000 to 10000 | 100 to 1000 |

Second part, the compound after the results:

| IC50 (HSP90 [1]) [nM] | IC50 (HSP90 [2]) [nM] | SMILES |
| --- | --- | --- |
| 1000 to 10000 | 1000 to 10000 | C#CCCCn1c(Sc2cc(OC)ccc2Br)nc2c(N)nccc21 [Compound 13, 2-(2-bromo-5-methoxyphenylthio)-1-(pent-4-ynyl)-1H-imidazo[4,5-c]pyridin-4-amine] |
| 1000 to 10000 | 1000 to 10000 | C#CCCCn1c(Sc2cc(OC)ccc2Cl)nc2c(N)nccc21 [Compound 14, 2-(2-chloro-5-methoxyphenylthio)-1-(pent-4-ynyl)-1H-imidazo[4,5-c]pyridin-4-amine] |
| ≥ 10000 | > 10000 | C#CCCCn1c(Sc2cc(OC)ccc2[N+](=O)[O-])nc2c(N)nccc21 [Compound 17, 2-(5-methoxy-2-nitrophenylthio)-1-(pent-4-ynyl)-1H-imidazo[4,5-c]pyridin-4-amine] |
| 1000 to 10000 | 1000 to 10000 | C#CCCCn1c(Sc2cc(OC)ccc2C(C)=O)nc2c(N)nccc21 [Compound 19, 1-(2-(4-amino-1-(pent-4-ynyl)-1H-imidazo[4,5-c]pyridin-2-ylthio)-4-methoxyphenyl)ethanone] |
| – | 100 to 1000 | CC(=O)NCCCCn1c(Sc2cc3c(cc2I)OCO3)nc2c(N)nccc21 [Compound 76, N-(4-(4-amino-2-(6-iodobenzo[d][1,3]dioxol-5-ylthio)-1H-imidazo[4,5-c]pyridin-1-yl)butyl)acetamide] |
| – | > 10000 | CN(C)Cc1cc2c(cc1Sc1nc3c(N)nccc3n1CCNCC(C)(C)C)OCO2 [Compound 115, 2-(6-((dimethylamino)methyl)benzo[d][1,3]dioxol-5-ylthio)-1-(2-(neopentylamino)ethyl)-1H-imidazo[4,5-c]pyridin-4-amine] |
